Data as given in patent US8871772B2, “Therapeutic methods and compounds” (Ampio Pharmaceuticals, Inc., priority 2008, dated 2014).

Columns and labels:
Type in all cases: cell-based
[1] = system: human umbilical vein endothelial cells (HUVECs); assay: Proliferation of HUVECs, Promega cell titer assay; settings: 72 hours
Protocol: Assays were performed to determine the effect of Cpd. 5 on proliferation of human umbilical vein endothelial cells (HUVECs). Passage 4-5 HUVECs, human source lot number 13047 (obtained from Lonza) were put into the wells of a 96-well tissue culture plate at 1200 cells/well in 100 μl endothelial growth medium-2 (EGM-2) complete medium (obtained from Lonza). A 50 mM stock solution of Cpd. 5 was prepared in DMSO and frozen at −80° C. Aliquots of the stock solution were removed and dilutions containing from 50 μM to 300 μM Cpd. 5 were made in EGM-2 complete medium (Lonza). Controls containing equivalent amounts of DMSO to the 200 μM solution were mixed for comparative purposes. 100 μl of the resulting solutions were then added to the cells in the 96-well culture plates in triplicate and placed in a 37° C. incubator with 5% CO2 for 72 hours.
Following incubation, cell proliferation was assayed by adding 20 μl Promega cell titer aqueous one reagent to each well. Promega cell titer reagent is a solution containing a tetrazolium dye that is reduced by living cells to a formazan dye, and this reduction is proportional to the number of living cells present in the well. The plates were incubated at 37° C. for an additional 4 hours to allow the colorimetric assay to develop, and the OD of each well was determined in a microplate reader using a 530 nm filter. The OD of wells containing cell titer reagent in culture medium with no cells was subtracted from the OD of all experimental readings.
The % decrease of the total cell titer signal was determined using the following formula. ((Diluent OD−Experimental OD)/Diluent OD))×100. Data are presented in Table 7 as mean % decrease of cell titer signal of three separate experiments, plus or minus standard deviation. In the mean % decrease column, a positive number means a decrease in cell titer signal, while a negative number means an increase in cell titer signal. The p values were calculated versus diluent controls.

endothelial cells = assay: Endothelial cell tube formation; settings: 50 μM or 100 μM
Protocol: When endothelial cells are cultured on extracellular matrix protein gels in the presence of angiogenic signals, they arrange themselves into structures loosely resembling capillary blood vessels (“tube formation”). Cpd.

MMP-9 [2] = assay: Release of MMP-9 from primary human microglial cells, gelatin zymogram; settings: supernatants concentrated 10×
MMP-9 [3] = assay: Secretion of MMP-9 by BT001 glioma cells, gelatin zymogram; settings: 48 hours
Protocol: Assays were performed to determine the effect of Cpd. 5 (synthesis described in Example 1) on the secretion of MMP-9 by the BT001 glioma cell line. The BT001 cell line was established as follows from cells obtained after surgery. The excised tissue was treated briefly with a protease cocktail, and the resulting cell suspension was cultured in IMDM supplemented with 10% FBS. Expanded cells were then frozen for future use.
A fresh 50 mM stock solution of Cpd. 5 was prepared in ethanol and warmed to 37° C. Aliquots of the stock solution were removed and diluted in IMDM supplemented with 0.1% FBS, insulin-transferrin-sodium selenite (ITSS) solution, and penicillin/streptomycin solution to prepare experimental culture media (final concentrations of Cpd. 5 ranged from 10-100 μM). Ethanol in the culture medium was used as diluent control.
The BT001 cells were cultured in 25 cm^2 flasks in IMDM containing 10% FBS at 37° C. and 5% CO2. When cells reach 70-80% confluence, they were washed two times with IMDM that had been warmed to 37° C. in a water bath. The experimental culture media containing Cpd. 5 were then added to the flasks (4.5 ml per flask), and the flasks were incubated at 37° C. and 5% CO2 for 48 hours. The conditioned media were then removed from the cells, and cellular debris was removed by centrifugation at 2000 rpm for 10 minutes. The supernatants were then transferred to sterile tubes and stored at −20° C.
Gelatin zymograms were used to evaluate MMP release and activity in the samples. Precast 10% polyacrylamide gels impregnated with gelatin were obtained from Invitrogen, Carlsbad, Calif. Ten μL, of each of the thawed conditioned media were mixed with an equal volume of SDS-PAGE loading dye without reducing agent (obtained from Invitrogen, Carlsbad, Calif.), applied to the gels and separated at 150 volts for 1 hour. The gels were then processed following the manufacturer's recommended protocol (includes renaturing the gels for one hour and incubating overnight at 37° C. with gentle shaking for protease digestion of gelatin). Visualization of MMP activity was done by staining the gel with Invitrogen Simple Safe blue commassie solution and photographing the gel on a Kodak Image station. The intensity of the bands in the photos was determined using bundled Kodak software. Percent decrease was determined with the following formula: (Intensity of diluent control)−(Intensity of treatment)/(Intensity of diluent control)×100. The data presented in Table 4 are the means of three or four replicate experiments.

**Q.** For `COC(=O)C(c1ccc(-c2ccccc2)cc1)C1NC(=O)CNC1=O` (stereo not drawn) [Cpd. 5, biphenyl-4-yl-(3,6-dioxo-piperazin-2-yl)-acetic acid methyl ester], which “MEAN % DECREASE of cell titer signal” value ([1]; 25 μM) is on record?
**A.** −48.60%

**Q.** What about the “MEAN % DECREASE of cell titer signal” value ([1]; 50 μM) of the same molecule?
**A.** −14.44%

**Q.** And the “MEAN % DECREASE of cell titer signal” value ([1]; 100 μM)?
**A.** 62.04%

**Q.** What about the “effect on tube formation” value (endothelial cells) of the same molecule?
**A.** no observable effect

**Q.** And the inhibition at 100 µM (MMP-9 [2]; 100 μM, read-out: inhibition of the release of active MMP-9)?
**A.** 35.9%

**Q.** And the “inhibition of the release of pro-MMP-9” value (MMP-9 [2]; data not shown)?
**A.** did not inhibit

**Q.** And the “MEAN % DECREASE ACTIVE MMP-9” value (MMP-9 [3]; BT001, 10 μM)?
**A.** 49.55 ± 21.49%

**Q.** And the “MEAN % DECREASE PRO-MMP-9” value (MMP-9 [3]; BT001, 10 μM)?
**A.** 6.89 ± 20.51%

**Q.** And the “MEAN % DECREASE ACTIVE MMP-9” value (MMP-9 [3]; BT001, 50 μM)?
**A.** 40.51 ± 9.73%

**Q.** And the “MEAN % DECREASE PRO-MMP-9” value (MMP-9 [3]; BT001, 50 μM)?
**A.** 36.13 ± 20.53%

**Q.** And the “MEAN % DECREASE ACTIVE MMP-9” value (MMP-9 [3]; BT001, 100 μM)?
**A.** 71.08 ± 17.47%

**Q.** What about the “MEAN % DECREASE PRO-MMP-9” value (MMP-9 [3]; BT001, 100 μM) of the same molecule?
**A.** 45.55 ± 20.50%
